Results: ChEMBL document CHEMBL5360557 (Eur J Med Chem, 2023)
Calls of active or inactive are those of the source. The calls are words filed in the database; no cut-off is given here.

Key:
[1] = Cytotoxicity against human HepG2 cells assessed as inhibition of cell growth incubated for 24 hrs by MTT assay; type: toxicity, cell-based
[2] = target: T1, Cholinesterase (Homo sapiens, UniProt P06276); experiment: Inhibition of recombinant human BuChE using butyrylthiocholine iodide as substrate preincubated with enzyme for 5 mins followed by substrate addition and measured after 1 min by Ellman's method
T1 sequence (P06276 whole entry): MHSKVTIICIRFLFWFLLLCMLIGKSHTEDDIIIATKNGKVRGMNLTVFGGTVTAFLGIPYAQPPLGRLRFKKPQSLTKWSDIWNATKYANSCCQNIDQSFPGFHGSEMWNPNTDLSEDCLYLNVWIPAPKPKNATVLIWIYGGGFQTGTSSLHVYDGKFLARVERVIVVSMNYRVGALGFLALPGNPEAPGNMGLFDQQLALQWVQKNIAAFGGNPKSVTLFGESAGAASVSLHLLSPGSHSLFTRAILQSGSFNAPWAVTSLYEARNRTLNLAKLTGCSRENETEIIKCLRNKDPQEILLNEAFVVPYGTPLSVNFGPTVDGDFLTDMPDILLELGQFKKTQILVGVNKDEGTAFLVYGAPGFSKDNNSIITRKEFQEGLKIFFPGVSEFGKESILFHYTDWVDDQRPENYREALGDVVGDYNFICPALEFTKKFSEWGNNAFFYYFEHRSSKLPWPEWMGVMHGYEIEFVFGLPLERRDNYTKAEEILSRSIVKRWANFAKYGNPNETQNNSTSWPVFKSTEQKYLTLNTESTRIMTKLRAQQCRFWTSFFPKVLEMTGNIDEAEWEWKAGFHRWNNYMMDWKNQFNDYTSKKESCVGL

[3] = in vitro; settings: PAMPA
Description: Permeability of the compound incubated for 3 to 6 hrs by PAMPA-BBB assay

[4] = target: Acetylcholinesterase (Homo sapiens, UniProt P22303); experiment: Inhibition of recombinant human AChE using acetylthiocholine iodide as substrate preincubated with enzyme for 5 mins followed by substrate addition and measured after 1 min by Ellman's method
Acetylcholinesterase, sequence (P22303 whole entry): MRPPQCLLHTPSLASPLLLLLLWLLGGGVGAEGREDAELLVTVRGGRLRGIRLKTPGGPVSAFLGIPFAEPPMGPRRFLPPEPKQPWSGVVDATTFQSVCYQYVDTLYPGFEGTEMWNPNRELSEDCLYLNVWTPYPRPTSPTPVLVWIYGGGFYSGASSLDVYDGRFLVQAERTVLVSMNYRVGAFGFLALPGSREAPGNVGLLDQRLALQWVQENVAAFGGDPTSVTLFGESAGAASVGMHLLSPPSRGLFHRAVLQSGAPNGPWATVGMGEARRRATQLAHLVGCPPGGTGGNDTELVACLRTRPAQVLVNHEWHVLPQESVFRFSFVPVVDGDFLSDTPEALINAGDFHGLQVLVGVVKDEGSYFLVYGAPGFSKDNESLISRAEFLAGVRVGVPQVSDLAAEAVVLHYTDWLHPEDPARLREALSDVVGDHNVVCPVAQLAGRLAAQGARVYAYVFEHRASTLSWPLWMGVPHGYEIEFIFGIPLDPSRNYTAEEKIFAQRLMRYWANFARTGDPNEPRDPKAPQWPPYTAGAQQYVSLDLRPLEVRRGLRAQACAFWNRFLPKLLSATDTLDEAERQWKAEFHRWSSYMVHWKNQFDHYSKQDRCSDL

[5] = target: T1, Cholinesterase; experiment: Competitive inhibition of human BuChE using butyrylthiocholine iodide as substrate assessed as increase in Km with constant apparent Vmax preincubated with enzyme for 5 mins followed by substrate addition and measured after 1 min by Lineweaver-Burk plot based Ellman's method; settings: time 6.0 min
[6] = target: T1, Cholinesterase; experiment: Competitive inhibition of human BuChE using butyrylthiocholine iodide as substrate assessed as inhibition constant preincubated with enzyme for 5 mins followed by substrate addition and measured after 1 min by Lineweaver-Burk plot based Ellman's method
[7] = Cytotoxicity against human SH-SY5Y cells assessed as inhibition of cell growth incubated for 24 hrs by MTT assay; type: toxicity, cell-based
[8] = target: T1, Cholinesterase; experiment: Inhibition of recombinant human BuChE using butyrylthiocholine iodide as substrate at 10 uM preincubated with enzyme for 5 mins followed by substrate addition and measured after 1 min by Ellman's method relative to control; settings: time 6.0 min

**Q.** Which IC50 at 24 h [1] does the source give for `COc1cccc(CN(CCCc2ccccc2F)C2CCC2)c1OCc1ccccc1` here?
**A.** 76 µM

**Q.** And the IC50 [2]?
**A.** 0.004 µM

**Q.** And the Papp [3]?
**A.** 60 ×10⁻⁶ cm/s

**Q.** And the IC50 [4]?
**A.** > 10 µM

**Q.** What about the inhibition [5] of the same molecule?
**A.** Active

**Q.** And the Ki [6]?
**A.** 0.00404 µM

**Q.** And the IC50 at 24 h [7]?
**A.** 87 µM

**Q.** What about the inhibition [8] of the same molecule?
**A.** 99%
